# Article PMC5688156, “The natural product carolacton inhibits folate-dependent C1 metabolism by targeting FolD/MTHFD” (Nature Communications, 2017)
# What was measured:
# hsMTHFD2 = biological target: T1, hsMTHFD2 (Homo sapiens, UniProt P13995); experiment: hsMTHFD2 cyclohydrolase (CYH) enzyme assay; type: biochemical
# T1 construct: His-tag (vector pHis-TEV) (cleaved yes); made in house; host or cells: E. coli BL21 (DE3)
# T1 sequence (P13995 36-350): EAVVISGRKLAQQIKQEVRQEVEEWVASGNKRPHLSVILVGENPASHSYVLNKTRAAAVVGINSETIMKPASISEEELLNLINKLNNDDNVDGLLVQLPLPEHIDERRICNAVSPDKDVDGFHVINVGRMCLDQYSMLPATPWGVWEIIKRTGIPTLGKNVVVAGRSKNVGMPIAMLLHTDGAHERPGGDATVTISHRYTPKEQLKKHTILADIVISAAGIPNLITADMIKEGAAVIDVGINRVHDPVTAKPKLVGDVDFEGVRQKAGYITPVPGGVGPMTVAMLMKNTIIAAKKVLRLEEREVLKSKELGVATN
# Procedure: (6R,S)-5,10-Methylene-5,6,7,8-tetrahydrofolic acid ((6R,S)-5,10-CH2-THF) calcium salt and (6R,S)-5,10-Methenyl-5,6,7,8-tetrahydrofolic acid ((6R,S)-5,10-CH=THF) chloride were purchased from Schircks Laboratories (Bauma, Switzerland) and used as substrates for FolD dehydrogenase and cyclohydrolase enzyme assays, respectively. Only the R-isomer, which accounts for 50% of (6R,S)-5,10-CH2-THF and (6R,S)-5,10-CH=THF, respectively, is used by the enzyme. (6R,S)-5,10-CH2-THF was dissolved in N2-spargeled basic buffer (50 mM Tris-HCl (pH 8.0), 100 mM β-mercaptoethanol) as described by Varshney et al.[25]. (6R,S)-5,10-CH=THF was dissolved in DMSO as a 100 mM stock solution.
# Because FolD is a bifunctional enzyme, dehydrogenase and cyclohydrolase activities were determined for FolD enzyme kinetics, respectively. The dehydrogenase activity of FolD was assayed for its substrate 5,10-CH2-THF and cofactor NADP^+ (in the case of MTHFD2, NAD^+ was used as the cofactor) based on monitoring the formation of 5,10-CH=THF, while the cyclohydrolase activity of FolD was determined for its substrate 5,10-CH=THF by monitoring the hydrolysis of […]. The enzyme kinetics for the dehydrogenase activity of all FolDs except hsMTHFD1_DC were determined at 30 °C in 50 mM Tris-HCl (pH 7.5), 30 mM β-mercaptoethanol. The hsMTHFD1_DC dehydrogenase activity was measured in 25 mM MOPS (pH 7.3), 30 mM β-mercaptoethanol at 30 °C. […] To monitor the formation of 5,10-CH=THF, the absorbance of the reaction mixture was monitored at 350 nm in micro UV cuvettes (BRAND, Essex, Connecticut, USA). The concentration of 5,10-CH=THF produced in the reaction was determined using an extinction co-efficient of 0.0249 μM^−1 cm^−1. […] The consumption of 5,10-CH=THF was measured by recording the absorbance of the reactions at 355 nm using the TECAN Infinite 200 PRO equipped with a monochromator. […] The inhibition constants (K i) of carolacton on FolD were determined by measuring the apparent K m when adding certain amounts of carolacton to the enzyme reactions. […]
# E. coli DSM-1116 (WT) = experiment: MIC determination on E. coli DSM-1116 (WT); type: cell-based; settings: Escherichia coli
# Procedure: (§1) The determination of MICs was performed as described elsewhere. In brief, E. coli strains were treated with carolacton in serial dilution in either the presence or absence of sub-inhibitory concentrations of polymyxin B nonapeptide (PMBN; 3 µg/mL) and/or phenylalanine–arginine β-napthylamide (PAβN; 20 µg/mL) for 16 h at 37 °C in Mueller–Hinton broth. The MICs were assessed by visual inspection of the plates.
# E. coli (TolC-deficient) = experiment: MIC determination on E. coli (TolC-deficient); type: cell-based, Escherichia coli; settings: 16 h
# Procedure: First, the minimum inhibitory concentration (MIC) of carolacton on the E. coliΔtolC strain was determined. We started to develop the resistant mutants on CASO agar (peptone from casein 15 g/L, peptone from soybean 5 g/L, NaCl 5 g/L and agar 15 g/L; pH 7.3) plates supplemented with 4× the MIC concentration of carolacton (0.5 μg/mL) as selection pressure. Different numbers of E. coliΔtolC cells from 1 × 10^7 to 10^9 were spread on caso agar plates with carolacton. After 7 days, E. coliΔtolC colonies, which were resistant to carolacton, started to form on the agar plates. The mutants picked were inoculated in liquid MHB medium (beef extract 2 g/L, peptone from casein 17.5 g/L and corn starch 1.5 g/L, pH 7.4) supplemented with carolacton.
# as §1
smiles,measurement,setting,value
CO[C@H](CC(=O)O)[C@@H](C)C(=O)[C@H](C)/C=C(\C)[C@H]1OC(=O)[C@H](O)[C@H](O)/C=C/[C@H](C)CCC[C@@H]1C [carolacton],IC50,"hsMTHFD2; 5 nM enzyme, read-out: IC50, carolacton inhibition on CYH activity",0.0857 µM
same,IC80,"hsMTHFD2; 5 nM enzyme, read-out: IC80, carolacton inhibition on CYH activity",0.202 µM
same,Ki,"hsMTHFD2; vs 5,10-CH=THF, read-out: Ki (5,10-CH=THF), carolacton inhibition on CYH activity",0.0127 µM
same,MIC,"E. coli DSM-1116 (WT); DSM1116, + 3 µg/mL PMBN + 20 µg/mL PAβN, no full inhibition",2 mg/L
same,MIC,"E. coli DSM-1116 (WT); DSM1116, + 3 µg/mL PMBN, cation-adjusted Mueller–Hinton broth",≥ 64 mg/L
same,MIC,"E. coli DSM-1116 (WT); DSM1116, + 20 µg/mL PAβN (efflux inhibitor), no full inhibition",2 mg/L
same,MIC,"E. coli DSM-1116 (WT); DSM1116, no additive, cation-adjusted Mueller–Hinton broth",> 64 mg/L
same,MIC,E. coli (TolC-deficient); Escherichia coli,0.13 mg/L
same,MIC,"E. coli (TolC-deficient); no additive, cation-adjusted Mueller–Hinton broth, 37 °C",0.125 mg/L
